# Assay results from ChEMBL document CHEMBL1221261, “Fluorescent retinoid X receptor ligands for fluorescence polarization assay” (Bioorg Med Chem Lett, 2010).
# Active and inactive are the calls of the source. The calls are words filed in the database; no cut-off is given here.
# Key:
# [1] = biological target: T1, Retinoic acid receptor RXR-alpha (Homo sapiens, UniProt P19793); assay: (§1) Agonist activity at human RXRalpha expressed in […] cells by luciferase reporter gene assay; type: functional, cell-based, COS-7
# T1 sequence (P19793 whole entry): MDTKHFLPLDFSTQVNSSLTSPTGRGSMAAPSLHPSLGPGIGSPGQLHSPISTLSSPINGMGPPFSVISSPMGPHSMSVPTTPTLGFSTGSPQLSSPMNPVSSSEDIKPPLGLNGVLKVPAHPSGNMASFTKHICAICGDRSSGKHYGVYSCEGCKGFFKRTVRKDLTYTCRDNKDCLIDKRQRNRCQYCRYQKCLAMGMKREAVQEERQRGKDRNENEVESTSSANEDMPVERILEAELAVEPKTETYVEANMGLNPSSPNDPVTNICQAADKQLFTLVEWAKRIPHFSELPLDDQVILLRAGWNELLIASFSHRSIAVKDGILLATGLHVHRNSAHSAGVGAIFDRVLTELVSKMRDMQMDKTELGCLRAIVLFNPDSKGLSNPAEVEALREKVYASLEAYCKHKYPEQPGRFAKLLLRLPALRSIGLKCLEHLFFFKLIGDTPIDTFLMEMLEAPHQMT
# [2] = biological target: T2, Retinoic acid receptor RXR-alpha (Homo sapiens) (UniProt P19793); assay: Agonist activity at human RXRalpha expressed in […] cells at 1 uM by luciferase reporter gene assay; type: functional, cell-based; conditions: COS-7
# T2 sequence (whole entry): T1 sequence (P19793 whole entry)
# [3] = biological target: T2, Retinoic acid receptor RXR-alpha (Homo sapiens); assay: as §1; type: functional, cell-based; conditions: COS-7
EC50 [1] [nM],Activity [2],Activity [3],Structure (SMILES)
1000,–,–,CCN(c1ccc(C(=O)O)cn1)c1ccc2c(C(F)(F)F)cc(=O)n(CC)c2n1
1000,–,–,CCN(c1ccc(C(=O)O)cn1)c1ccc2c(C(F)(F)F)cc(=O)n(C)c2n1
1000,Active,–,CCN(c1ccc(C(=O)O)cn1)c1ccc2c(C(F)(F)F)cc(=O)n(CC(C)C)c2n1
–,–,inactive,CCN(c1ccc(C(=O)O)cn1)c1ccc2c(C)cc(=O)n(C)c2n1
